We go through three compounds from patent US20050229260A1, “Compound screens relating to insulin deficiency or insulin resistance” (DevGen NV, priority 2000, published 2005).

In assay [1] the target is protein phosphatase 2A. As to conditions: protein phosphatase 2A inhibitor; cited from earlier work.
Assay [2] concerns PTP. As to conditions: PTP inhibitor; cited from earlier work.
Assay [3] has as its system C. elegans strain DR1564: daf-2(m41).
Description: All screening was done at 20 μM compound concentration in quadruplicates, except 2000 compounds of Diverset in triplicates. Confirmation was done at 4 concentrations. Questionable dose responses were repeated, if necessary at lower concentrations and/or 2 fold dilution steps. All worms that bypassed dauer stage, L4s and adults, were counted under a Leica MZ12 dissection scope and together referred to as number of adults per well. […] Data were transferred to Excel files and average and variance of the 8 controls of each plate calculated and plotted.
The number of wells was plotted against the number of adults per well and a negative binomial distribution fitted by maximum likelihood. […]
Then the number of adults per well where the cumulative negative binomial distribution was closest to 99% was determined and referred to as 1% cut-off. […]
The plates were then screened through quickly to find wells with a high number adults, which were counted and if found to reach the cut-off value the position on the lid was circled and the exact value written in the circle. […] Finally the transparent lids of the 4 replicate plates were stacked on top of each other and by looking through them it was determined whether 2 or more lids were circled in any position. […]

pIC50: −log10 of the molar value.

What is called pIC50 is −log10 of the IC50, conventionally taken in molar units. As for `CC1(C(=O)O)C2CCC(O2)C1(C)C(=O)O` (stereo not drawn) [Cantharidic acid], in assay [1], the negative logarithm of the IC50 (pIC50) was 7.28.
Consider `CN(N=O)c1cc(O)ccc1O` [Dephostatin], for which the pIC50 in assay [2] was 5.11.
For the compound `COC[C@H]1OC(=O)c2coc3c2[C@@]1(C)C1=C(C3=O)[C@@H]2CCC(=O)[C@@]2(C)C[C@H]1OC(C)=O` [Wortmannin], the “active in the assay” value in assay [3] is reported as “active”.
